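Cells were grown in 96-well plates and exposed to each compound for 48 hours at five concentrations; endpoints were interpolated linearly between bracketing concentrations, or set to the highest concentration if not reached. GI50 marks 50% less growth. Definition used: TGI = concentration required for complete inhibition of growth.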
Assays:
Test in all cases: growth of human tumour cells (NCI), 48 h
NCI-H23 lung = system: NCI-H23 lung
UACC-62 melanoma = system: UACC-62 melanoma
ACHN renal = system: ACHN renal
TK-10 renal = system: TK-10 renal
SNB-75 CNS = system: SNB-75 CNS
OVCAR-4 ovarian = system: OVCAR-4 ovarian
OVCAR-5 ovarian = system: OVCAR-5 ovarian
A498 renal = system: A498 renal
K-562 leukemia = system: K-562 leukemia
MDA-MB-231 breast = system: MDA-MB-231 breast

| SMILES | TGI (NCI-H23 lung) [µM] | TGI (UACC-62 melanoma) [µM] | TGI (ACHN renal) [µM] | TGI (TK-10 renal) [µM] | TGI (SNB-75 CNS) [µM] | TGI (OVCAR-4 ovarian) [µM] | TGI (OVCAR-5 ovarian) [µM] | TGI (A498 renal) [µM] | TGI (K-562 leukemia) [µM] | TGI (MDA-MB-231 breast) [µM] | GI50 (NCI-H23 lung) [µM] | GI50 (UACC-62 melanoma) [µM] | GI50 (TK-10 renal) [µM] | GI50 (SNB-75 CNS) [µM] | GI50 (MDA-MB-231 breast) [µM] | GI50 (OVCAR-4 ovarian) [µM] | GI50 (K-562 leukemia) [µM] | GI50 (ACHN renal) [µM] | GI50 (OVCAR-5 ovarian) [µM] |
| --- | --- | --- | --- | --- | --- | --- | --- | --- | --- | --- | --- | --- | --- | --- | --- | --- | --- | --- | --- |
| COc1ccc(OC)c(CCc2cc(OC)c(OC)cc2C)c1 | > 100 | > 100 | > 100 | > 100 | > 100 | > 100 | > 100 | > 100 | > 100 |  |  |  |  |  |  |  |  |  |  |
| Cc1ccc(NC(=O)SCCC(=O)O)cc1NC(=O)SCCC(=O)O | > 100 |  | > 100 | > 100 |  | > 100 | > 100 | > 100 | > 100 |  |  |  |  |  |  |  |  |  |  |
| O=C1OC(=O)C2C3CCC(O3)C12 (configuration not stated) | > 100 | > 100 | > 100 | > 100 |  |  | > 100 | > 100 | > 100 |  |  |  |  |  |  |  |  |  |  |
| CC1=CC(C)C(O)C(C)/C=C/C(O)C/C=C(/C)C(=O)CC(O)C(C)\C=C/C=C/C=C\C(=O)NC2=C(O)c3cc(C)c(O)c(c3C(=O)C2=O)C1=O (configuration not stated) | > 100 | > 100 | > 100 | > 100 | > 100 | > 100 | > 100 |  |  | > 100 |  |  |  |  |  |  |  |  |  |
| CN/N=C(\C)CC(=O)Nc1cccc(Cl)c1C | > 100 | > 100 | > 100 | > 100 | > 100 | > 100 | > 100 | > 100 | > 100 |  |  |  |  |  |  |  |  |  |  |
| COC(=O)C(C(=O)C(=O)Nc1ccccc1OC)c1csc(-n2nc(-c3ccccc3)cc2-c2ccccc2)n1 (configuration not stated) | > 100 | > 100 | > 100 | > 100 | 92.7 | > 100 | > 100 | > 100 | > 100 |  |  |  |  |  |  |  |  |  |  |
| COC1OC(C)C(OC(=O)C(C)(C)C)C(C)(O)C1O (configuration not stated) | > 100 | > 100 |  | > 100 |  | > 100 | > 100 | > 100 | > 100 |  |  |  |  |  |  |  |  |  |  |
| CC1CC2C3CC(F)C4=CC(=O)C=CC4(C)C3(F)C(O)CC2(C)C1(O)C(=O)CO (configuration not stated) | > 100 | > 100 | > 100 | > 100 | > 100 | > 100 |  |  | > 100 |  |  |  |  |  |  |  |  |  |  |
| O=C(NCCNCCO)c1ccc2oc3cc4ccccc4c(=O)n3c2c1 | 23.4 | 19 |  | 20.3 | 47.5 | 36.8 |  |  | > 50 | 19.9 | 9.97 | 7.85 | 9.93 | 15.2 | 8.12 | 15.8 | 14.9 |  |  |
| COc1ccc(-c2c(N)[n+]([O-])c3cc(C)c(C)cc3[n+]2[O-])cc1OC | > 100 | > 100 | > 100 | > 100 | > 100 | > 100 | > 100 | > 100 | > 100 |  |  |  |  |  |  |  |  |  |  |
| CCOC(=O)c1c(C)c2c(n1C)CSc1cc(S(=O)(=O)c3ccccc3)c(=O)[nH]c1-2 | > 100 | 69.1 | > 100 | > 100 | > 100 | > 100 | > 100 |  | > 100 | > 100 | 28.6 | 14.2 | 34.4 | 42.7 | 24.5 | 27.8 | 14.6 | 26.3 | 45.6 |
| O=C1C=C(Br)C(=O)C(Br)=C1 | > 100 | > 100 | > 100 | > 100 | > 100 | > 100 | > 100 | > 100 | > 100 |  |  |  |  |  |  |  |  |  |  |
| O=C(O)C1Cc2nc[nH]c2CN1 (configuration not stated) | > 100 | > 100 | > 100 | > 100 | > 100 | > 100 | > 100 | > 100 | > 100 |  |  |  |  |  |  |  |  |  |  |
| COc1cc2c(cc1OC)-c1c(cc(OC)c(OC)c1OC)C2=O | > 100 | > 100 | > 100 | > 100 | 95.5 |  | > 100 |  | > 100 |  |  |  |  |  |  |  |  |  |  |
| O=C1/C(=C\c2ccccc2)c2ccccc2N1Cc1ccccc1 | 16.8 | 14.3 | 25.1 | 17.4 | 22.8 | 27.5 | 15.2 |  | > 31.3 | 13.3 |  |  |  |  |  |  |  |  |  |
| CC(C)OCN1COCN=C1NC#N | > 100 | > 100 | > 100 | > 100 | > 100 | > 100 | > 100 | > 100 | > 100 |  |  |  |  |  |  |  |  |  |  |
| O=C1CCC(=O)c2cc(Br)ccc2N1 | > 100 | > 100 | > 100 | > 100 | > 100 | > 100 | > 100 | > 100 | > 100 |  |  |  |  |  |  |  |  |  |  |
| O=C(Nc1cc(C(F)(F)F)ccc1Cl)C(=O)C(C(=O)c1ccc2ccccc2c1)C1OC(=O)c2ccccc21 (configuration not stated) | 17.8 | 32.9 | > 86.7 | 40.3 | 21.7 | > 59.3 | 24.5 | 20.8 | 49.6 |  |  |  |  |  |  |  |  |  |  |
| COc1ccc(C(=O)C(C(=O)C(=O)Nc2nc3ccc(OC)cc3s2)c2ccc(OC)cc2)cc1 (configuration not stated) | > 100 | > 100 | > 100 | > 100 | > 100 | > 100 | > 100 | > 100 | > 100 |  |  |  |  |  |  |  |  |  |  |
| CC(NC1CCC[C@H]1O)c1ccccc1 (mixture of isomers) | > 100 | > 100 | > 100 | > 100 | > 100 | > 100 |  | > 100 | > 100 |  |  |  |  |  |  |  |  |  |  |
| C=C(C)C1CC[C@]2(C(=O)O)CCC3(C)[C@H](CCC4[C@@]5(C)CC[C@H](OC6OC(CO)C(O)C6OC6OC(C)C(O)C(O)C6O)[C@@](C)(CO)C5CC[C@]43C)C12 (some centres not stated) | > 100 | > 100 | > 100 | > 100 | > 100 | > 100 | > 100 |  | > 100 |  |  |  |  |  |  |  |  |  |  |
| COC(=O)C1CCc2c(OC)ccc(OC)c2C1=O (configuration not stated) | > 100 | > 100 | > 100 | > 100 |  | > 100 | > 100 | > 100 | > 100 |  |  |  |  |  |  |  |  |  |  |
| COc1cc(C2C(C(=O)O)=C(C)Oc3cc4c(cc32)OCO4)cc(OC)c1OC (configuration not stated) | > 100 | > 100 | > 100 | > 100 | 53.1 | > 100 |  |  | > 100 |  |  |  |  |  |  |  |  |  |  |
| CC(=O)Nc1ccc(/C=c2\sc3nnc(/C=C/c4ccccc4)n3c2=O)cc1 | > 50 | > 50 | > 50 | > 50 | > 50 | > 50 | > 50 | > 50 | > 50 |  |  |  |  |  |  |  |  |  |  |
| COCCN1C2=CCCCC2=Nc2c(N)nc(N)nc21 | > 100 | > 100 | > 100 | > 100 | > 100 |  | > 100 | > 100 | > 100 |  |  |  |  |  |  |  |  |  |  |
